For series [1], the target named is T1, Recombinant bovine HSC70 (Bos taurus, UniProt P19120).
T1 construct: purchased Stressgen
Briefly: Surface plasmon resonance, direct binding of peptides to immobilized HSC70. To be noted: SPR BIAcore 3000, HSC70 immobilized via thiol groups on CM5, HBS-EP pH 7.4, 25°C, peptide 1.56 to 12.5 µM, 1:1 Langmuir model; for kon: read-out: association rate constant (kon); for koff: read-out: dissociation rate constant (koff). As for the experimental part: To assess P140 binding to HSC70, we investigated the binding parameters and kinetics by surface plasmon resonance. HSC70 was immobilized onto the sensor chip via one of its four thiol groups, and different concentrations of P140 and 131–151 peptides were injected in the flux followed by a dissociation phase (see the overlay surface plasmon resonance plots of the raw data in Figure 1B). […] Similar data were obtained when biotinylated P140 was on the chip and HSC70 in solution. Thus, in this in vitro system, both peptides bind with medium affinity (µM range) to HSC70. […] Of significant importance, no binding was observed between P140 and Hsp70.
BIAcore 3000 system (Biacore AB) was used to evaluate the binding of P140 peptide to HSC70 protein. Sensor chip CM5, surfactant P20, amine coupling kit containing N-hydroxysuccinimide (NHS) and N-ethyl-N′-dimethylaminopropyl carbodiimide (EDC), 2-(2-pyridinyldithio)ethaneamine (PDEA) and ethanolamine were from Biacore AB. Biosensor assays were performed with HBS-EP buffer as running buffer (10 mM HEPES, 150 mM NaCl, 3 mM EDTA, 0.005% surfactant P20, pH 7.4). The different compounds were diluted in the running buffer. The sensor chip surface was regenerated after each experiment by injecting 10 µL of 10 mM HCl. Recombinant bovine HSC70 (Stressgen) was immobilized on flow cells of a CM5 sensor chip through its thiol groups using 35 µL PDEA in 50 mM borate buffer, pH 8.3 on the NHS/EDC-activated matrix. Then, 35 µL of HSC70 (100 µg/mL in formate buffer, pH 4.3) were injected until a response of 13,000 response units (RU) corresponding to 13 ng/mm^2 of HSC70 was immobilized. Twenty µL of a 50 mM cysteine/1 M NaCl solution was used to saturate unoccupied sites on the chip. The direct binding measurement of P140 peptides to HSC70 was carried out at 25°C with a constant flow rate of 20 µL/min. P140 peptide and analogues were injected in the flux at different concentrations for 3 min, followed by a dissociation phase of 3 min. The kinetic parameters were calculated using the BIAeval 3.1 software on a personal computer. Analysis was performed using the simple 1∶1 Langmuir binding model. The specific binding profiles were obtained after subtracting the response signal from the control empty channel and from blank-buffer injection. The fitting to each model was judged by the χ square value and randomness of residue distribution compared to the theoretical model.

The nature of series [2]: Solubility limit by dynamic light scattering. The class given is physicochemical. As for the experimental part:
The solubility of P140 and 131–151 peptides was determined at 20 and 37°C using dynamic light scattering measurements. […] The integrity of P140, as measured in saline and PBS by high-performance liquid chromatography from the area of the peak corresponding to the intact peptide, remained intact during at least 60 days at 37°C (Figure 2D).
The synthesis and purification of P140 peptide (RIHMVYSKRpSGKPRGYAFIEY; produced under Good Manufacturing Practice conditions), and of peptides 131–151 ([…]) and ScP140 (YVSRYFGpSAIRHEPKMKIYRG) were described previously, [3], [7]. For the biotin-labeled peptides, the biotin moiety was introduced at the end of peptide assembly as a Fmoc-Lys(biotin)-OH derivative. Homogeneity of peptides was checked by analytical high-performance liquid chromatography, and their identity was assessed by matrix-assisted laser desorption and ionization time-of-flight (TOF) mass spectrometry using a Protein TOF apparatus (Bruker Spectrospin). The solubility limits of both peptides in the cell culture medium RPMI 1640, PBS and distilled water were determined at 20 and 37°C using dynamic light scattering measurements.

The test system of a further series is MRL/lpr mice. Further details: method as in PMID 2397613. As to conditions: cited from earlier work.
A further series relates to SLE patients. To be noted: human, in vivo; cited from earlier work.
Series [3] addresses HSC70 (heat-shock cognate 71-kDa protein) (UniProt P63017). Description: biotin-peptide on cells, lysis, avidin-agarose pull-down. As to conditions: reference: non-phosphorylated biotin-peptide 131-151; sites S140.
Series [4] has as its target T2, recombinant bovine HSC70 (bovine, UniProt P19120 1-650).
T2 construct: heat-shock cognate HSC70 protein, bovine, recombinant (Stressgen); Immobilised through one of its four thiol groups in the SPR experiment; no tag is named; also called recombinant HSC70 protein; source: bought: Stressgen (recombinant)
Briefly: SPR; BIAcore 3000; recombinant bovine HSC70 immobilised on CM5 chip through its thiol groups (13,000 RU); peptides injected (1.56 to 12.5 µM) 3 min, dissociation 3 min; 25°C, 20 µL/min; HBS-EP pH 7.4; 1:1 Langmuir model. As to conditions: both partners purified.

Non-standard residues stand in square brackets, D forms with d. Residues, ends and D or L forms follow the SMILES beside them. No end group written: not given here. pS = N[C@@H](COP(=O)(O)O)C(=O)O

T1 sequence (P19120 whole entry): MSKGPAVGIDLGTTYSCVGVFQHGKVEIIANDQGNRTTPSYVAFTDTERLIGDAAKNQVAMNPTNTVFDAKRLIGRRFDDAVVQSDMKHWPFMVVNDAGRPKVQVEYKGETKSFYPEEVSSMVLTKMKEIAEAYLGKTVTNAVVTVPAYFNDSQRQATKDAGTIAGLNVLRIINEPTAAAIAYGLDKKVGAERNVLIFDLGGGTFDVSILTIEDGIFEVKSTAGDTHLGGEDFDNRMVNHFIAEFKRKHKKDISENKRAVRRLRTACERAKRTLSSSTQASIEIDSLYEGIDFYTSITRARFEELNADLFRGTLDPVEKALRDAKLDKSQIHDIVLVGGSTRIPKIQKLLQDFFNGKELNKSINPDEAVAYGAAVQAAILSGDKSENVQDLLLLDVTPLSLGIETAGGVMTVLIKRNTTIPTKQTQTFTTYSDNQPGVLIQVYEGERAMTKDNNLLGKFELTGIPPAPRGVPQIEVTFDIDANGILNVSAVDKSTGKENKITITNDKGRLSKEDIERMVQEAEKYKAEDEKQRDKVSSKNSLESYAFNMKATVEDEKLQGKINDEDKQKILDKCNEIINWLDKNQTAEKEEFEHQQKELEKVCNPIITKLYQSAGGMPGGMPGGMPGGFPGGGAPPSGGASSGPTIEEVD
T2 sequence (P19120 whole entry): as above

A word on the kon: it is the rate constant with which the complex forms. A word on the koff: it is a measure of how fast the partners let go of each other. As for `CC[C@H](C)[C@H](NC(=O)[C@H](Cc1ccccc1)NC(=O)[C@H](C)NC(=O)[C@H](Cc1ccc(O)cc1)NC(=O)CNC(=O)[C@H](CCCNC(=N)N)NC(=O)[C@@H]1CCCN1C(=O)[C@H](CCCCN)NC(=O)CNC(=O)[C@H](COP(=O)(O)O)NC(=O)[C@H](CCCNC(=N)N)NC(=O)[C@H](CCCCN)NC(=O)[C@H](CO)NC(=O)[C@H](Cc1ccc(O)cc1)NC(=O)[C@@H](NC(=O)[C@H](CCSC)NC(=O)[C@H](Cc1c[nH]cn1)NC(=O)[C@@H](NC(=O)[C@@H](N)CCCNC(=N)N)[C@@H](C)CC)C(C)C)C(=O)N[C@@H](CCC(=O)O)C(=O)N[C@@H](Cc1ccc(O)cc1)C(=O)O` [P140] (HELM PEPTIDE1{R.I.H.M.V.Y.S.K.R.[O=C([C@H](COP(=O)(O)O)N[*:1])[*:2]].G.K.P.R.G.Y.A.F.I.E.Y}$$$$V2.0), on Recombinant bovine HSC70 [1], the kon came out at 530 M⁻¹ s⁻¹ and the koff is 0.00388 s⁻¹. Moreover, the solubility entry in series [2] (in water) is “highly soluble”. Take `N=C(N)NCCCCCCC(=O)NC(O)C(=O)NCCCCNCCCN` (centres unmarked) [15-deoxyspergualin]: in the series on MRL/lpr mice, the “progression of polyclonal B cell activation and lupus nephropathy” value is “suppressed the progression”. For the same molecule, the “treated patients with non-severe infectious episodes” value in the series with SLE patients was “two of three”. With RIHMVYSKRSGKPRGYAFIEY [131–151], at Recombinant bovine HSC70 [1], the association rate constant (kon) amounted to 606 M⁻¹ s⁻¹ and the koff worked out at 0.00407 s⁻¹. In addition, the solubility entry in series [2] (200 µM-solution in water, PBS and culture medium (RPMI 1640), 20 and 37°C) is reported as “highly soluble”.

As for “U1-70K small nuclear ribonucleoparticle protein 131-151 (from UniProt Q62376) biotin-P140 (pS140)”, the “binding against the reference” value in series [3] is on record as “same”.

B1: P140 peptide (U1-70K snRNP protein residues 131-151, phosphorylated on Ser140) (peptide)
peptide: RIHMVYSKR[pS]GKPRGYAFIEY
notes: pS is the phosphoserine; also called phosphopeptide P140; source: synthetic peptide
A word on the Kd: it is the concentration at which binding is half-saturated. In the case of B1, the dissociation constant Kd with recombinant bovine HSC70 [4] was 7.32 µM.

B2: non-phosphorylated peptide 131-151 of the U1-70K snRNP protein (peptide)
peptide: RIHMVYSKRSGKPRGYAFIEY
notes: also called non-phosphorylated analogue; source: synthetic peptide
As for B2, the dissociation constant (Kd) with recombinant bovine HSC70 [4] amounted to 6.72 µM.

The values above are taken from publication PMC2669294, “The Spliceosomal Phosphopeptide P140 Controls the Lupus Disease by Interacting with the HSC70 Protein and via a Mechanism Mediated by γδ T Cells” (PLoS ONE, 2009).
